In patent publication US11807693B2 (priority 2014, dated 2023):
Starred links: 1 amine or outer side, 2 acyl side, 3 side chain; linkers in the order of their positions; H or OH if unused. Non-standard residues stand in square brackets, D forms with d. Residues, ends and D or L forms follow the SMILES beside them. *: point of attachment. Oic = O=C(O)[C@@H]1C[C@@H]2CCCC[C@@H]2N1; Phe(4-Cl) = N[C@@H](Cc1ccc(Cl)cc1)C(=O)O; dPhe(4-Cl) = N[C@H](Cc1ccc(Cl)cc1)C(=O)O; γGlu = O=C(O)[C@H](CCC(=O)[*:2])N[*:1]; 1Nal = N[C@@H](Cc1cccc2ccccc12)C(=O)O; NMeR = CN[C@@H](CCCNC(=N)N)C(=O)O; Palmitoyl = CCCCCCCCCCCCCCCC(=O)*; Tridecanoyl = CCCCCCCCCCCCC(=O)*; hArg = N=C(N)NCCCC[C@H](N)C(=O)O; Cha = N[C@@H](CC1CCCCC1)C(=O)O; αMeL = CC(C)C[C@](C)(N)C(=O)O; Tle = CC(C)(C)[C@H](N)C(=O)O; αMeP = C[C@@]1(C(=O)O)CCCN1; β3hP = O=C(O)C[C@@H]1CCCN1; Pip = O=C(O)[C@@H]1CCCCN1; β3hS = N[C@@H](CO)CC(=O)O; Nle = CCCC[C@H](N)C(=O)O; Deg = CCC(N)(CC)C(=O)O; AEEA = NCCOCCOCC(=O)O; Aib = CC(C)(N)C(=O)O

Target: T1, human APJ receptor (Homo sapiens, UniProt P35414)
T1 construct: expressed in transfected cells
T1 sequence (P35414 1-380): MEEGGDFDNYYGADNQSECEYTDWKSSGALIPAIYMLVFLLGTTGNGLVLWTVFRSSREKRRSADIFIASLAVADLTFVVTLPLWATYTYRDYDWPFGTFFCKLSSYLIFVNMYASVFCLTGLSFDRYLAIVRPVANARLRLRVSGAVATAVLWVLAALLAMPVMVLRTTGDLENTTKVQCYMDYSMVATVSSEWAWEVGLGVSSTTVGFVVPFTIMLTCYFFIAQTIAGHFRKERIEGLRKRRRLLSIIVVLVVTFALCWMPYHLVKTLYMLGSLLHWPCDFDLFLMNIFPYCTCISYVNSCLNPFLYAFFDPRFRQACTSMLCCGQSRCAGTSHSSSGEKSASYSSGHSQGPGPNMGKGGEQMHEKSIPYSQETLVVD
Test: [35S] GTPγS assay, human APJ receptor
Assay type: biochemical
Procedure: The membranes were incubated with modified peptides in the assay buffer. […] Bound [^35S] GTPγS was separated from free radiolabel by filtration. The filter bound radioactivity was determined by liquid scintillation counting.

SMILES | EC50 (Table 16) [nM] | EC50 (human APJ receptor) [nM]
CCCCCCCCCCCCC(=O)N[C@@H](CCC(=O)NCCOCCOCC(=O)NCCOCCOCC(=O)N[C@H](CCC(N)=O)C(=O)N[C@@H](CCCCNC(=N)N)C(=O)N1CCC[C@H]1C(=O)N[C@H](CCCNC(=N)N)C(=O)N[C@@H](CC1CCCCC1)C(=O)N[C@@H](CO)C(=O)N[C@@H](Cc1c[nH]cn1)C(=O)N[C@@H](CCCCN)C(=O)NCC(=O)N1[C@H](C(=O)N[C@@H](CCCC)C(=O)N2CCC[C@H]2C(=O)N[C@@H](Cc2cccc3ccccc23)C(=O)O)C[C@@H]2CCCC[C@@H]21)C(=O)O [compound 367] ({Tridecanoyl-γGlu-AEEA-AEEA}-[dQ][hArg]P[dR][Cha]SHKG[Oic][Nle]P[1Nal]-OH) | 26.4 | 
CCCCCCCCCCCCC(=O)N[C@@H](CCC(=O)NCCOCCOCC(=O)NCCOCCOCC(=O)N[C@@H](CCC(N)=O)C(=O)N[C@@H](CCCCNC(=N)N)C(=O)N1CCC[C@H]1C(=O)N(C)[C@@H](CCCNC(=N)N)C(=O)N[C@@H](CC1CCCCC1)C(=O)N[C@@H](CO)C(=O)N[C@@H](Cc1c[nH]cn1)C(=O)N[C@@H](CCCCN)C(=O)NCC(=O)N1CCC[C@H]1C(=O)N[C@@H](CCCC)C(=O)N1CCC[C@H]1C(=O)N[C@@H](Cc1ccc(Cl)cc1)C(=O)O)C(=O)O [compound 408] ({Tridecanoyl-γGlu-AEEA-AEEA}-Q[hArg]P[NMeR][Cha]SHKGP[Nle]P[Phe(4-Cl)]-OH) | 0.0768 | 
CCCCCCCCCCCCC(=O)N[C@@H](CCC(=O)NCCOCCOCC(=O)NCCOCCOCC(=O)N[C@@H](CCC(N)=O)C(=O)N[C@@H](CCCNC(=N)N)C(=O)N1CCC[C@H]1C(=O)N(C)[C@@H](CCCNC(=N)N)C(=O)N[C@@H](CC1CCCCC1)C(=O)N[C@@H](CO)C(=O)N[C@@H](C)C(=O)N[C@@H](CCCCN)C(=O)NCC(=O)N1[C@H](C(=O)N[C@@H](CCCC)C(=O)N2CCC[C@H]2C(=O)N[C@@H](Cc2ccc(Cl)cc2)C(=O)O)C[C@@H]2CCCC[C@@H]21)C(=O)O [compound 419] ({Tridecanoyl-γGlu-AEEA-AEEA}-QRP[NMeR][Cha]SAKG[Oic][Nle]P[Phe(4-Cl)]-OH) | 0.484 | 
CCCCCCCCCCCCC(=O)N[C@@H](CCC(=O)NCCOCCOCC(=O)NCCOCCOCC(=O)N[C@@H](CC(N)=O)CC(=O)N[C@@H](CCCNC(=N)N)C(=O)N1CCC[C@H]1C(=O)N(C)[C@@H](CCCNC(=N)N)C(=O)N[C@@H](CC(C)C)C(=O)N[C@@H](CO)C(=O)N[C@@H](Cc1c[nH]cn1)C(=O)N[C@@H](CCCCN)C(=O)NCC(=O)N1CCC[C@H]1C(=O)N[C@@H](CCCC)C(=O)N1CCC[C@H]1C(=O)N[C@@H](Cc1ccc(Cl)cc1)C(=O)O)C(=O)O [compound 420] |  | 0.0526
CCCCCCCCCCCCC(=O)N[C@@H](CCC(=O)NCCOCCOCC(=O)NCCOCCOCC(=O)N[C@@H](CCC(N)=O)C(=O)N[C@@H](CCCNC(=N)N)C(=O)N1CCC[C@H]1C(=O)N(C)[C@@H](CCCNC(=N)N)C(=O)N[C@@H](CC1CCCCC1)C(=O)N[C@@H](CO)C(=O)N[C@H](C(=O)N[C@@H](CCCCN)C(=O)NCC(=O)N1[C@H](C(=O)N[C@@H](CCCC)C(=O)N2CCC[C@H]2C(=O)N[C@@H](Cc2ccc(Cl)cc2)C(=O)O)C[C@@H]2CCCC[C@@H]21)C(C)(C)C)C(=O)O [compound 438] ({Tridecanoyl-γGlu-AEEA-AEEA}-QRP[NMeR][Cha]S[Tle]KG[Oic][Nle]P[Phe(4-Cl)]-OH) | 1.49 | 
CCCCCCCCCCCCC(=O)N[C@@H](CCC(=O)NCCOCCOCC(=O)NCCOCCOCC(=O)N[C@H](CCC(N)=O)C(=O)N[C@@H](CCCNC(=N)N)C(=O)N1CCC[C@H]1C(=O)N(C)[C@@H](CCCNC(=N)N)C(=O)N[C@@](C)(CC(C)C)C(=O)N[C@@H](CO)CC(=O)N[C@@H](Cc1c[nH]cn1)C(=O)N[C@@H](CCCCN)C(=O)NCC(=O)N1[C@H](C(=O)N[C@@H](CCCC)C(=O)N2CCC[C@@]2(C)C(=O)N[C@@H](Cc2ccc(Cl)cc2)C(=O)O)C[C@@H]2CCCC[C@@H]21)C(=O)O [compound 518] ({Tridecanoyl-γGlu-AEEA-AEEA}-[dQ]RP[NMeR][αMeL][β3hS]HKG[Oic][Nle][αMeP][Phe(4-Cl)]-OH) | 0.113 | 
CCCCCCCCCCCCCCCC(=O)N[C@@H](CCC(=O)NCCOCCOCC(=O)NCCOCCOCC(=O)N[C@H](CCC(N)=O)C(=O)N[C@@H](CCCNC(=N)N)C(=O)N1CCC[C@H]1C(=O)N(C)[C@@H](CCCNC(=N)N)C(=O)N[C@@H](CC1CCCCC1)C(=O)N[C@@H](CO)C(=O)N[C@@H](Cc1c[nH]cn1)C(=O)N[C@@H](CCCCN)C(=O)NCC(=O)N1CCCC[C@H]1C(=O)NC(C)(C)C(=O)N[C@@H](Cc1ccc(Cl)cc1)C(=O)O)C(=O)O [compound 581] ({Palmitoyl-γGlu-AEEA-AEEA}-[dQ]RP[NMeR][Cha]SHKG[Pip][Aib][Phe(4-Cl)]-OH) |  | 1.4

Results, then the compound that gave them:

EC50 (Table 16) [nM] | EC50 (human APJ receptor) [nM] | SMILES
6.11 |  | CCCCCCCCCCCCC(=O)N[C@@H](CCC(=O)NCCOCCOCC(=O)NCCOCCOCC(=O)N[C@@H](CCC(N)=O)C(=O)N[C@@H](CCCNC(=N)N)C(=O)N1CCC[C@H]1C(=O)N(C)[C@@H](CCCNC(=N)N)C(=O)N[C@@H](CC1CCCCC1)C(=O)N[C@@H](CO)C(=O)N[C@@H](Cc1c[nH]cn1)C(=O)N[C@@H](CCCCN)C(=O)NCC(=O)N1[C@H](C(=O)N[C@@H](CCCC)C(=O)N2CCC[C@H]2C(=O)N[C@H](Cc2ccc(Cl)cc2)C(=O)O)C[C@@H]2CCCC[C@@H]21)C(=O)O [compound 381] ({Tridecanoyl-γGlu-AEEA-AEEA}-QRP[NMeR][Cha]SHKG[Oic][Nle]P[dPhe(4-Cl)]-OH)
1 |  | CCCCCCCCCCCCC(=O)N[C@@H](CCC(=O)NCCOCCOCC(=O)NCCOCCOCC(=O)N[C@@H](CCC(N)=O)C(=O)N[C@@H](CCCNC(=N)N)C(=O)N1CCC[C@H]1C(=O)N(C)[C@@H](CCCNC(=N)N)C(=O)N[C@@H](CC1CCCCC1)C(=O)N[C@@H](CO)C(=O)N[C@@H](Cc1c[nH]cn1)C(=O)N[C@@H](CCCCN)C(=O)NCC(=O)N1[C@H](C(=O)N[C@@H](CCCC)C(=O)N[C@@H](Cc2ccc(Cl)cc2)C(=O)O)C[C@@H]2CCCC[C@@H]21)C(=O)O [compound 409] ({Tridecanoyl-γGlu-AEEA-AEEA}-QRP[NMeR][Cha]SHKG[Oic][Nle][Phe(4-Cl)]-OH)
3.48 |  | CCCCCCCCCCCCC(=O)N[C@@H](CCC(=O)NCCOCCOCC(=O)NCCOCCOCC(=O)N[C@@H](CCC(N)=O)C(=O)N[C@@H](CCCNC(=N)N)C(=O)N1CCCC[C@H]1C(=O)N(C)[C@@H](CCCNC(=N)N)C(=O)N[C@@H](CC1CCCCC1)C(=O)N[C@@H](CO)C(=O)N[C@@H](Cc1c[nH]cn1)C(=O)N[C@@H](CCCCN)C(=O)NCC(=O)N1[C@H](C(=O)N[C@@H](CCCC)C(=O)N2CCC[C@H]2C(=O)N[C@@H](Cc2ccc(Cl)cc2)C(=O)O)C[C@@H]2CCCC[C@@H]21)C(=O)O [compound 440] ({Tridecanoyl-γGlu-AEEA-AEEA}-QR[Pip][NMeR][Cha]SHKG[Oic][Nle]P[Phe(4-Cl)]-OH)
1.9 |  | CCCCCCCCCCCCC(=O)N[C@@H](CCC(=O)NCCOCCOCC(=O)NCCOCCOCC(=O)N[C@@H](CCC(N)=O)C(=O)N[C@@H](CCCNC(=N)N)C(=O)N1CCC[C@H]1CC(=O)N(C)[C@@H](CCCNC(=N)N)C(=O)N[C@@H](CC1CCCCC1)C(=O)N[C@@H](CO)C(=O)N[C@@H](Cc1c[nH]cn1)C(=O)N[C@@H](CCCCN)C(=O)NCC(=O)N1[C@H](C(=O)N[C@@H](CCCC)C(=O)N2CCC[C@H]2C(=O)N[C@@H](Cc2ccc(Cl)cc2)C(=O)O)C[C@@H]2CCCC[C@@H]21)C(=O)O [compound 441] ({Tridecanoyl-γGlu-AEEA-AEEA}-QR[β3hP][NMeR][Cha]SHKG[Oic][Nle]P[Phe(4-Cl)]-OH)
53.1 |  | CCCCCCCCCCCCC(=O)N[C@@H](CCC(=O)NCCOCCOCC(=O)NCCOCCOCC(=O)N[C@H](CCC(N)=O)C(=O)N[C@@H](CCC(=O)O)C(=O)N1CCC[C@H]1C(=O)N(C)[C@@H](CCCNC(=N)N)C(=O)N[C@@H](CC1CCCCC1)C(=O)N[C@@H](CO)C(=O)N[C@@H](Cc1c[nH]cn1)C(=O)N[C@@H](CCCCN)C(=O)NCC(=O)N1[C@H](C(=O)N[C@@H](CCCC)C(=O)NC(C)(C)C(=O)N[C@@H](Cc2ccc(Cl)cc2)C(=O)O)C[C@@H]2CCCC[C@@H]21)C(=O)O [compound 524] ({Tridecanoyl-γGlu-AEEA-AEEA}-[dQ]EP[NMeR][Cha]SHKG[Oic][Nle][Aib][Phe(4-Cl)]-OH)
159 |  | CCCCCCCCCCCCC(=O)N[C@@H](CCC(=O)NCCOCCOCC(=O)NCCOCCOCC(=O)N[C@H](CCC(N)=O)C(=O)N[C@H](CCC(=O)O)C(=O)N1CCC[C@H]1C(=O)N(C)[C@@H](CCCNC(=N)N)C(=O)N[C@@H](CC1CCCCC1)C(=O)N[C@@H](CO)C(=O)N[C@@H](Cc1c[nH]cn1)C(=O)N[C@@H](CCCCN)C(=O)NCC(=O)N1[C@H](C(=O)N[C@@H](CCCC)C(=O)NC(C)(C)C(=O)N[C@@H](Cc2ccc(Cl)cc2)C(=O)O)C[C@@H]2CCCC[C@@H]21)C(=O)O [compound 525] ({Tridecanoyl-γGlu-AEEA-AEEA}-[dQ][dE]P[NMeR][Cha]SHKG[Oic][Nle][Aib][Phe(4-Cl)]-OH)
1.2 |  | CCCCCCCCCCCCC(=O)N[C@@H](CCC(=O)NCCOCCOCC(=O)NCCOCCOCC(=O)N[C@H](CCC(N)=O)C(=O)N[C@@H](CCCNC(=N)N)C(=O)N1CCC[C@H]1C(=O)N(C)[C@@H](CCCNC(=N)N)C(=O)N[C@@H](CC1CCCCC1)C(=O)N[C@@H](CO)C(=O)N[C@@H](Cc1c[nH]cn1)C(=O)N[C@@H](CCCCN)C(=O)NCC(=O)N1[C@H](C(=O)N[C@@H](CCCC)C(=O)NC(CC)(CC)C(=O)N[C@@H](Cc2ccc(Cl)cc2)C(=O)O)C[C@@H]2CCCC[C@@H]21)C(=O)O [compound 549] ({Tridecanoyl-γGlu-AEEA-AEEA}-[dQ]RP[NMeR][Cha]SHKG[Oic][Nle][Deg][Phe(4-Cl)]-OH)
